Series [1] concerns Mycosphaerella graminicola; anamorph: Septoria tritici; Bayer code SEPTTR. Put plainly: Evaluation of fungicidal activity: leaf blotch of wheat (SEPTTR), disease control on wheat plants. Type of series: in vivo. The following applies: Zymoseptoria tritici. The method, then: Evaluation of Fungicidal Activity: Leaf Blotch of Wheat (Mycosphaerella graminicola; anamorph: Septoria tritici; Bayer code […]) Wheat plants (variety Yuma) were grown from seed in a greenhouse in 50% mineral soil/50% soil-less Metro mix until the first leaf was fully emerged, with 7-10 seedlings per pot. These plants were inoculated with an aqueous spore suspension of Septoria tritici either prior to or after fungicide treatments. After inoculation the plants were kept in 100% relative humidity (one day in a dark dew chamber followed by two to three days in a lighted dew chamber) to permit spores to germinate and infect the leaf. The plants were then transferred to a greenhouse for disease to develop. The following table presents the activity of typical compounds of the present disclosure when evaluated in these experiments. The effectiveness of the test compounds in controlling disease was determined by assessing the severity of disease on treated plants, then converting the severity to percent control based on the level of disease on untreated, inoculated plants.

Setting [2] is: 24 h, 100 ppm, one-day protectant, wheat plants (variety Yuma), percent control vs untreated, inoculated plants, read-out: SEPTTR 100 PPM 1DP (One-Day Protectant activity, % disease control rating).
[3] abbreviates: 72 h, 100 ppm, three-day curative, wheat plants (variety Yuma), percent control vs untreated, inoculated plants, read-out: SEPTTR 100 PPM 3DC (Three-Day Curative activity, % disease control rating).
The mark [4] stands for this setting: 24 h, read-out: SEPTTR 100 PPM 1DP (One-Day Protectant activity, % disease control rating).
Where [5] appears, read: 72 h, read-out: SEPTTR 100 PPM 3DC (Three-Day Curative activity, % disease control rating).

The source of these data is patent US9840475B2, “N-(substituted)-5-fluoro-4-imino-3-methyl-2-oxo-3,4-dihydropyrimidine-1(2H)-carboxamide derivatives” (Adama Makhteshim Ltd., priority 2012, dated 2017).

Molecules are shown by their SMILES. Like-named read-outs stand apart in the source and are kept apart here.

`Cn1c(=N)c(F)cn(C(=O)Nc2ccccc2)c1=O` came in with a melting point of 192.3 to 194.4 °C.

On to `Cc1ccc(NC(=O)n2cc(F)c(=N)n(C)c2=O)cc1` [Compound 1], for which the melting point lay in the range of 184.7 to 186.2 °C. Moreover, in series [1] (setting [2]), the pest or weed control at 100 ppm is 51 to 75%. In series [1] (setting [3]), the pest or weed control at 100 ppm lay in the range of 0 to 25%.

`Cn1c(=N)c(F)cn(C(=O)Nc2ccc(Cl)cc2)c1=O` [Compound 2] showed a melting point of 199 to 200.8 °C. Moreover, the pest or weed control at 100 ppm in series [1] (setting [4]) lay in the range of 26 to 50%. In addition, the pest or weed control at 100 ppm in series [1] (setting [5]) fell in the range of 0 to 25%.

On to `Cn1c(=N)c(F)cn(C(=O)Nc2cc(F)cc(F)c2)c1=O` [Compound 3, N-(3,5-difluorophenyl)-5-fluoro-4-imino-3-methyl-2-oxo-3,4-dihydropyrimidine-1(2H)-carboxamide], for which the melting point lay within 203 to 204.5 °C. Further, the pest or weed control at 100 ppm in series [1] (setting [2]) was 0 to 25%. In series [1] (setting [3]), the pest or weed control at 100 ppm was in the range of 51 to 75%.

With `COc1ccc(NC(=O)n2cc(F)c(=N)n(C)c2=O)cc1` [Compound 4], the melting point lay within 194.8 to 195.4 °C. Also, the pest or weed control at 100 ppm in series [1] (setting [4]) fell in the range of 51 to 75%. In addition, the pest or weed control at 100 ppm in series [1] (setting [5]) was 26 to 50%.

For the compound `Cc1ccc(NC(=S)n2cc(F)c(=N)n(C)c2=O)cc1` [Compound 5], the pest or weed control at 100 ppm in series [1] (setting [4]) and in series [1] (setting [5]) was 76 to 100% each time.

`Cn1c(=N)c(F)cn(C(=S)Nc2ccc(Cl)cc2)c1=O` [Compound 6, N-(4-chlorophenyl)-5-fluoro-4-imino-3-methyl-2-oxo-3,4-dihydropyrimidine-1(2H)-carbothioamide]: the pest or weed control at 100 ppm in series [1] (setting [2]) and in series [1] (setting [3]) was 76 to 100% in each case.

Compound `Cn1c(=N)c(F)cn(C(=O)Nc2ccsc2)c1=O` [Compound 7] returned a melting point of 194.2 to 195.2 °C. Further, in series [1] (setting [2]), the pest or weed control at 100 ppm lay in the range of 51 to 75%. In addition, the pest or weed control at 100 ppm in series [1] (setting [3]) lay within 76 to 100%.

The compound `Cn1c(=N)c(F)cn(C(=O)Nc2cccs2)c1=O` [Compound 8] returned a melting point of 200.3 to 201.8 °C. Moreover, in series [1] (setting [2]), the pest or weed control at 100 ppm lay within 51 to 75%. In series [1] (setting [3]), the pest or weed control at 100 ppm was in the range of 76 to 100%.

For `COc1ccccc1NC(=O)n1cc(F)c(=N)n(C)c1=O` [Compound 9], the melting point was in the range of 168.9 to 170 °C. Also, the pest or weed control at 100 ppm in series [1] (setting [2]) is 26 to 50%. For the same compound, the pest or weed control at 100 ppm in series [1] (setting [3]) was in the range of 76 to 100%.

On to `Cc1cccc(NC(=O)n2cc(F)c(=N)n(C)c2=O)c1` [Compound 10], for which the melting point was 188.5 to 192.4 °C. In series [1] (setting [2]), the pest or weed control at 100 ppm was in the range of 0 to 25%. The pest or weed control at 100 ppm in series [1] (setting [3]) was 51 to 75%.

As for `Cn1c(=N)c(F)cn(C(=O)Nc2ccc(C(F)(F)F)cc2)c1=O` [Compound 11], the melting point was in the range of 192.4 to 195.7 °C. In addition, the pest or weed control at 100 ppm in series [1] (setting [2]) was in the range of 0 to 25%. Moreover, in series [1] (setting [3]), the pest or weed control at 100 ppm is 0 to 25%.

In turn, `Cn1c(=N)c(F)cn(C(=O)Nc2cccc(F)c2)c1=O` [Compound 12] came in with a melting point of 197.5 to 199.4 °C. In addition, the pest or weed control at 100 ppm in series [1] (setting [2]) was 51 to 75%. Further, the pest or weed control at 100 ppm in series [1] (setting [3]) was 0 to 25%.

For `Cn1c(=N)c(F)cn(C(=O)Nc2ccc(F)cc2)c1=O` [Compound 13], the melting point lay in the range of 194 to 196 °C. Also, in series [1] (setting [2]), the pest or weed control at 100 ppm lay within 0 to 25%. Moreover, in series [1] (setting [3]), the pest or weed control at 100 ppm lay in the range of 26 to 50%.

For the compound `Cn1c(=N)c(F)cn(C(=O)Nc2cc(Cl)cc(Cl)c2)c1=O` [Compound 14], the melting point lay in the range of 210 to 213.1 °C. Besides, in series [1] (setting [4]), the pest or weed control at 100 ppm fell in the range of 0 to 25%. The pest or weed control at 100 ppm in series [1] (setting [5]) is 0 to 25%.

In turn, `Cn1c(=N)c(F)cn(C(=O)Nc2cccc(C#N)c2)c1=O` [Compound 15] yielded a melting point of 204.1 to 205.5 °C. In addition, in series [1] (setting [2]), the pest or weed control at 100 ppm is 0 to 25%. Also, the pest or weed control at 100 ppm in series [1] (setting [3]) lay in the range of 26 to 50%.

Regarding `Cc1ccc(NC(=O)n2cc(F)c(=N)n(C)c2=O)cc1Cl` [Compound 16], the melting point is 192.9 to 193.5 °C. Also, the pest or weed control at 100 ppm in series [1] (setting [2]) was 76 to 100%. Also, the pest or weed control at 100 ppm in series [1] (setting [3]) fell in the range of 26 to 50%.

As for `COc1ccc(OC)c(NC(=O)n2cc(F)c(=N)n(C)c2=O)c1` [Compound 17], the melting point fell in the range of 168.3 to 169.6 °C. Besides, the pest or weed control at 100 ppm in series [1] (setting [2]) was in the range of 76 to 100%. For the same compound, in series [1] (setting [3]), the pest or weed control at 100 ppm fell in the range of 76 to 100%.

`Cn1c(=N)c(F)cn(C(=O)Nc2ccc(F)cc2Cl)c1=O` [Compound 18] had a melting point of 203.6 to 205.5 °C. Further, the pest or weed control at 100 ppm in series [1] (setting [2]) lay in the range of 51 to 75%. The pest or weed control at 100 ppm in series [1] (setting [3]) lay within 0 to 25%.

With `COc1ccc(NC(=O)n2cc(F)c(=N)n(C)c2=O)cc1F` [Compound 19], the melting point was 194.3 to 196.3 °C. Further, in series [1] (setting [2]), the pest or weed control at 100 ppm lay in the range of 76 to 100%. Also, in series [1] (setting [3]), the pest or weed control at 100 ppm was 26 to 50%.

For the compound `Cc1cc(NC(=O)n2cc(F)c(=N)n(C)c2=O)c(C)cc1Cl` [Compound 20], the melting point lay within 210 to 213 °C. The pest or weed control at 100 ppm in series [1] (setting [2]) fell in the range of 51 to 75%. The pest or weed control at 100 ppm in series [1] (setting [3]) was 26 to 50%.

In the case of `COc1cccc(NC(=O)n2cc(F)c(=N)n(C)c2=O)c1` [Compound 21], the melting point lay within 195.5 to 196.3 °C. For the same compound, the pest or weed control at 100 ppm in series [1] (setting [2]) was 0 to 25%. For the same compound, in series [1] (setting [3]), the pest or weed control at 100 ppm lay within 0 to 25%.

As to `Cn1c(=N)c(F)cn(C(=S)Nc2cc(Cl)cc(Cl)c2)c1=O` [Compound 22], the pest or weed control at 100 ppm in series [1] (setting [2]) was in the range of 51 to 75%; in series [1] (setting [3]), 26 to 50%.
